The values below are quoted from earlier work in patent US9808553B2, “Haemostatic wound dressing” (Haemostatix Limited, priority 2012, dated 2017).

The data set deals with fibrinogen (Homo sapiens, UniProt P02679).
fibrinogen, sequence (P02679 27-453): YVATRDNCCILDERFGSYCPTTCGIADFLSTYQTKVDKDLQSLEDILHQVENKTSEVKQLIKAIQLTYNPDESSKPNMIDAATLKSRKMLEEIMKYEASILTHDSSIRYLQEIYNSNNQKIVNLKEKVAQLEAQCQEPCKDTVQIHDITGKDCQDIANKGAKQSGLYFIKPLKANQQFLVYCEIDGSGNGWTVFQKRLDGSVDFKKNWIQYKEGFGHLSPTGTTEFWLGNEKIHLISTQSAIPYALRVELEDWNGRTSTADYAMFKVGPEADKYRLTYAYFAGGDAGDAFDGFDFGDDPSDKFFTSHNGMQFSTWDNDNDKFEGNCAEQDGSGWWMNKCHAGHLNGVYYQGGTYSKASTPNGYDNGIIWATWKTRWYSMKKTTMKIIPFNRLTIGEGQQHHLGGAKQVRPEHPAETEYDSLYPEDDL
fibrinogen, sequence (P02671 20-629 partner limits assumed): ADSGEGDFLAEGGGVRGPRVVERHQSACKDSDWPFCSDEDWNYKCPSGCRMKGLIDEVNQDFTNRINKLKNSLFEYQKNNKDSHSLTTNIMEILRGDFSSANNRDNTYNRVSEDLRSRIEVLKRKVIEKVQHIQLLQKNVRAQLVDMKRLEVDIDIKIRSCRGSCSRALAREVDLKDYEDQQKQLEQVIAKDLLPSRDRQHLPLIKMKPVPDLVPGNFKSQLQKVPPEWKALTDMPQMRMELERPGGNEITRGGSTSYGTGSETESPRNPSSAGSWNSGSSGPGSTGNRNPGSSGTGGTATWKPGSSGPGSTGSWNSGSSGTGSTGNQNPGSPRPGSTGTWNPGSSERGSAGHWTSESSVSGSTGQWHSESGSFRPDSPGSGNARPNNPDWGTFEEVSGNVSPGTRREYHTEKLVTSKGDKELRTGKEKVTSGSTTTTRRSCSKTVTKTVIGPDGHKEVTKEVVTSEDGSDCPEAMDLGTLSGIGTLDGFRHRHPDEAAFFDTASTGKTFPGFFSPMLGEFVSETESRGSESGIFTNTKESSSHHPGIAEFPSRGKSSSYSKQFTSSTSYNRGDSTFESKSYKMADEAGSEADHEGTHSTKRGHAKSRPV
fibrinogen, sequence (P02675 31-491 partner): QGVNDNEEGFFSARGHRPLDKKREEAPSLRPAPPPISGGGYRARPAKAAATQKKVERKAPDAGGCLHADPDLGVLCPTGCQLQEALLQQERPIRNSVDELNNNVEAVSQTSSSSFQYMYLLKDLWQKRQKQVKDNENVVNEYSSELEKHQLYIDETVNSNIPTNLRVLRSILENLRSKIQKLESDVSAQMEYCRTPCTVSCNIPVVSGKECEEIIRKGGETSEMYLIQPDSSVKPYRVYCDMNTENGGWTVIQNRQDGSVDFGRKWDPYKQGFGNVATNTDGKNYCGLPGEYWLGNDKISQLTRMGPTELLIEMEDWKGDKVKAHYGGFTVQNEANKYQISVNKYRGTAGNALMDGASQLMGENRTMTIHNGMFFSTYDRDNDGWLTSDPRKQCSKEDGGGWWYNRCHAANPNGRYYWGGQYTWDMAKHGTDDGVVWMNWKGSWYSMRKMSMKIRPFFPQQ

Take GPRP: the “Affinity for fibrinogen versus natural cleaved sequence with valine at position four” value is recorded as “higher affinity”.
